Test results as given in patent publication US20230364121A1 (priority 2020, published 2023).
“And” between values parts separate entries of the source, which are not always exact repeats. Identical values can stand only once. Like-named read-outs stand apart in the source and are kept apart here.

Legend:
[1] = tested on: Huh7 cells; conditions: human
[2] = tested on: human coronavirus alpha-229E; experiment: microbe, parasite or virus in culture; format: cell-based, HCoV-229E; conditions: for EC90: read-out: Virus Yield Reduction Assay EC90; for EC50: Huh-7, 120 h, read-out: Neutral Red Assay EC50
[3] = tested on: SARS-CoV and SARS-CoV-2 RTCs; format: biochemical
[4] = biological target: T1, SARS-Cov-1 nsp12:7L8:8 polymerase complex (Severe acute respiratory syndrome coronavirus, UniProt P0C6X7); experiment: biochemical; format: biochemical
[5] = biological target: Sars-CoV-2 nsp8 labeling by nsp12 (Severe acute respiratory syndrome coronavirus 2, UniProt P0DTD1); experiment: nsp8-UMPylation competition assay with RTCs; format: biochemical; conditions: FIG. 13E
[6] = biological target: T1, SARS-Cov-1 nsp12:7L8:8 polymerase complex; format: biochemical
[7] = biological target: nsp12:7:8 RTC (Severe acute respiratory syndrome coronavirus, UniProt P0C6X7); format: biochemical, SARS-CoV
[8] = biological target: nsp12 (Severe acute respiratory syndrome coronavirus, UniProt P0C6X7); format: binding, SARS-CoV
[9] = biological target: SARS CoV1 nsp14 (Severe acute respiratory syndrome coronavirus, UniProt P0C6X7); format: biochemical, SARS-CoV-1
[10] = biological target: nsp12-NiRAN (Severe acute respiratory syndrome coronavirus, UniProt P0C6X7); format: biochemical, SARS-CoV
[11] = biological target: nsp12 NiRAN active-site (Severe acute respiratory syndrome coronavirus, UniProt P0C6X7); experiment: biochemical; format: biochemical, SARS-CoV
[12] = tested on: Salmonella/microsome; conditions: acknowledged by Merck; cited from earlier work
[13] = tested on: SARS-CoV-2 strain BavPatl; experiment: Antiviral assay in HUH7.5 cells, viral RNA by RT-qPCR; format: cell-based; conditions: 2 days; for EC90: Severe acute respiratory syndrome coronavirus 2, 48 h
[14] = in vitro; conditions: human
[15] = tested on: mock infected MES-1 cells; experiment: Cytotoxicity in mock infected MES-1 cells (MTT); format: cell-based; conditions: Table 3B, 3 days
Experimental: (§1) To determine the cytotoxicity, cells were seeded at an initial density of 1×10^6 cells/mL in 96 well plates containing Minimum Essential Medium with Earles's salts (MEM-E), L-glutamine, 1 mM sodium pyruvate and 25 mg/L kanamycin, supplemented with 10% fetal bovine serum. Cell cultures were then incubated at 37° C. in a humidified 5% CO2 atmosphere in the absence or presence of serial dilutions of test compounds. Cell viability was determined by the MTT method.

[16] = tested on: HCoV; experiment: microbe, parasite or virus in culture; format: cell-based, human coronavirus
[17] = Bronchoalveolar lavage and plasma PK / safety study in healthy participants; format: in vivo, human
Experimental: Two cohorts of 8 healthy participants have been enrolled to receive AT-527 at 275 or 550 mg BID orally for 2.5 days. At 4 and 12 h following the last dose, each participant (4/timepoint/cohort) underwent a single bronchoalveolar lavage (BAL) via a standard bronchoscope. Intensive plasma PK sampling was also performed after the last dose. BAL and plasma samples were assayed for AT-273. AT-273 levels in lung epithelial lining fluid (ELF) were calculated by correcting for urea levels in the BAL and the corresponding plasma samples. Safety assessments included adverse events (AEs), vital signs, electrocardiograms (ECGs), and standard laboratory tests.

[18] = Cytotoxicity in mock infected BHK cells (MTT); format: cell-based, hamster; conditions: hamster, uninfected BHK-21 cells; BHK-21; Table 5
Experimental: as §1
Uninfected cells in the presence of serially diluted compound were used to assess the cytotoxicity of compounds.

[19] = tested on: HCoV-229E; experiment: Virus-induced CPE assay, HCoV-229E in BHK-21 cells (MTT); format: cell-based; conditions: Human coronavirus 229E, BHK-21, 72 h, BHK-21; dye staining; 3-day incubation; read-out: EC50
Experimental: In an initial screening, BHK-21 cells acutely infected with a seasonal human alpha coronavirus, HCoV-229E, were exposed to serial dilutions of Compound 1A.
BHK-21 cells: Test compounds were dissolved in DMSO at 100 mM and then diluted in Minimum Essential Medium with Earle's salts (MEM-E) containing 1 mM sodium pyruvate and 25 μg/mL kanamycin, supplemented with 10% FBS (growth medium) to final concentrations of 100, 20, 4 and 0.8 μM (two […] replica plates each). After BHK-21 cells were grown to confluency in 96-well plates, growth medium was replaced with fresh maintenance medium (growth medium with 1% inactivated FBS in place of 10% FBS) containing serially diluted test compound and HCoV-229E at a multiplicity of infection (MOI) of 0.01. Uninfected cells in the presence of serially diluted compound were used to assess the cytotoxicity of compounds. After a 3-day incubation at 37° C. in a humidified 5% CO2 atmosphere, cell viability was determined by the MTT method (Pauwels, R et al. J. Virol. Methods 20(4):309-321 (1988)).

[20] = unidentified human coronavirus, Huh-7, 72 h
[21] = IC50 of nsp8 labeling against GTP (FIG. 13C)
[22] = IC50 of nsp8 labeling against UTP (FIG. 13C)
[23] = IC50 of nsp8 labeling, competition with UTP (FIG. 13A)
[24] = Severe acute respiratory syndrome coronavirus 2, Huh7.5, 48 h
[25] = AT-527 550 mg BID orally 2.5 days, 4 and 12 h after last dose

## CCN(CC)CCCC(C)Nc1ccnc2cc(Cl)ccc12 (stereo not drawn) [chloroquine, reference compound]
[1]
  CC50: 21 µM
[2]; [20]
  EC90: < 0.05 µM
[2]; unidentified human coronavirus
  EC50: 8.1 µM

## CCN(CCO)CCCC(C)Nc1ccnc2cc(Cl)ccc12 (stereo not drawn) [hydroxychloroquine, reference compound]
[1]
  CC50: 26 µM
[2]
  EC90: < 0.048 µM
[2]; [20]
  EC90: < 0.05 µM
[2]; unidentified human coronavirus
  EC50: 7.4 µM

## C[C@@]1(F)[C@H](O)[C@@H](COP(=O)(O)OP(=O)(O)OP(=O)(O)O)O[C@H]1n1cnc2c(=O)[nH]c(N)nc21 [AT-9010, 2′-fluoro-2′-C-methylguanosine-5′-triphosphate]
[3]; equimolar concentrations of GTP
  discrimination compared with natural GTP: ~5 fold
[4]
  EC50: 1.5 to 2 µM
  inhibition of de novo synthesis on poly(A) template: almost complete inhibition
[5]
  fold more efficient at blocking nsp8 labeling than STP: 4-5 fold
[6]
  Discrimination of ATEA-GTP, average: 27.0+/−7.9 fold and 21.0+/−1.5 fold and 27.0 fold and 21.0 fold
  discrimination against GTP: 22 fold
  inhibition of primer elongation: no inhibition of primer elongation
[7]
  inhibition of RNA synthesis from poly(C) template: significantly reduces activity
  inhibition of synthesis of poly(U)n RNA from poly(A)27 template: inhibits synthesis of poly(U)n RNA equally as well as STP
[8]
  thermal stability of nsp12: provides more thermodynamic stability than any other native nucleotide
[9]
  inhibition of N7-MTase activity: no inhibition
[10]
  fold preference AT9010: GTP: ~1.7 fold
  fold preference AT9010: UTP: ~3.2 fold
[11]; [21]
  IC50: 2.7 ± 0.3 µM
[11]; [22]
  IC50: 1.9 µM
[11]; [23]
  IC50: 0.87 µM

## CC(C)C(=O)OC[C@H]1O[C@@H](n2ccc(NO)nc2=O)[C@H](O)[C@@H]1O [Molnupiravir, molnupiravir]
[12]
  AMES test: positive
[13]
  EC50: 1.71 µM
  EC90: 4.21 µM
[13]; [24]
  EC50: 1.7 µM
[14]
  CC50: > 20 µM

## C[C@@]1(F)[C@H](O)[C@@H](COP(=O)(O)OP(=O)(O)OP(=O)(O)O)O[C@H]1n1ccc(=O)[nH]c1=O [STP, 5′-triphosphate 2′-fluoro-2′-C-methyl uridine]
[3]; 5-fold higher concentrations than UTP
  competition with UTP: not competitive
[3]; STP: UTP 20:1
  competition with UTP: not competitive
[6]
  discrimination as substrate of the SARS-CoV RDRP: > 250 fold
[7]
  inhibition of RNA synthesis from poly(C) template: virtually inactive
[11]
  fold less efficient at blocking nsp8 labeling / UMPylation than AT-9010: ~5 fold
[11]; [21]
  IC50: 5 ± 0.8 µM
[11]; [22]
  IC50: 8.2 ± 1.4 µM
[11]; [23]
  IC50: 4.6 ± 0.2 µM

## CC(C)C[C@H](NC(=O)OCc1ccccc1)C(=O)N[C@@H](C[C@@H]1CCNC1=O)C(O)S(=O)(=O)O (stereo partly drawn) [GC376]
[13]
  EC90: < 0.15 µM
[13]; [24]
  EC50: < 0.15 µM
[14]
  CC50: > 20 µM

## CC(C)OC(=O)[C@H](C)N[P@](=O)(OCC1O[C@@H](n2ccc(=O)[nH]c2=O)[C@](C)(F)[C@@H]1O)Oc1ccccc1 (stereo partly drawn) [drawing 255]
[15]
  CC50: > 100 µM
[16]
  EC50: > 100 µM

## CNc1nc(N)nc2c1ncn2[C@@H]1O[C@H](CO[P@](=O)(N[C@@H](C)C(=O)OC(C)C)Oc2ccccc2)[C@@H](O)[C@@]1(C)F [drawing 254]
[15]
  CC50: > 100 µM
[16]
  EC50: 2.2 µM

## CCC(CC)COC(=O)[C@H](C)N[P@](=O)(OC[C@H]1O[C@@](C#N)(c2ccc3c(N)ncnn23)[C@H](O)[C@@H]1O)Oc1ccccc1 [drawing 258]
[15]
  CC50: > 100 µM
[16]
  EC50: 5.5 µM

## CNc1nc(N)nc2c1ncn2[C@@H]1O[C@H](CO[P@@](=O)(N[C@@H](C)C(=O)OC(C)C)Oc2ccccc2)[C@@H](O)[C@@]1(C)F [drawing 253]
[15]
  CC50: > 100 µM
[16]
  EC50: 2 µM

## CC(C)(CO)C(=O)SCCOP(=O)(NCc1ccccc1)OC[C@H]1O[C@@H](n2cnc3c(=O)[nH]c(N)nc32)[C@](C)(O)[C@@H]1O (stereo partly drawn) [drawing 257]
[15]
  CC50: 82 µM
[16]
  EC50: 1.7 µM

## C[C@@]1(F)[C@H](O)[C@@H](CO)O[C@H]1n1cnc2c(=O)[nH]c(N)nc21 [AT-273]
[17]; [25]
  Mean AT-273 level in lung ELF: ≥ 0.5 µM
  Mean AT-273 level in plasma: ≥ 0.5 µM
[17]; P<0.001
  correlation of ELF and plasma levels (r): 0.86

## C[C@@]1(F)[C@H](O)[C@@H](COP(=O)(O)OP(=O)(O)OP(=O)(O)O)O[C@H]1n1ccc(=O)[nH]c1=O [2′C-Me 2′F-UTP, reference compound]
[4]
  EC50: 20 to 40 µM
[6]
  incorporation efficacy compared to misincorporation at a U position: around 40%

## CC(C)OC(=O)[C@H](C)N[P@](=O)(OC[C@H]1O[C@@H](n2ccc(=O)[nH]c2=O)[C@](C)(F)[C@@H]1O)Oc1ccccc1 [sofosbuvir, reference compound]
[18]
  CC50 at 3 days: > 100 µM
[19]
  EC50: > 100 µM
[11]
  fold less efficient at blocking nsp8 labeling / UMPylation than AT-9010: about 5 fold
